“Also recorded” adds a separate entry of the source. Square brackets hold non-standard residues; d marks the D form. Peptide text beside a SMILES is read from it. * marks the point of attachment. Sta = CC(C)C[C@H](N)[C@@H](O)CC(=O)O; Isovaleryl = CC(C)CC(=O)*
Legend:
[1] = in vivo; cited from earlier work
[2] = target: T1, porcine pepsin (Sus scrofa, UniProt P00791); experiment: peptic activity assay, fluorescence polarization with casein-Alexa647; type: biochemical; details: for inhibited pepsin (peptic activity): 200 nM probe, 0.01 U/μL pepsin, 5% DMSO, 0.1 M HCl pH 1
T1 construct: purchased Worthington Biochemical Corporation
Procedure: To examine whether HIV protease inhibitors bound and inhibited pepsin, we developed assays based on fluorescence polarization which measures size-dependent molecular rotation thereby permitting detection of degradation, association and dissociation events^80. A competitive binding assay was designed employing pepstatin, an inhibitor of sub-nanomolar affinity^81. Pepstatin-Alexa647 was synthesized by dissolving 1 mg pepstatin A (Sigma-Aldrich) in a 50:50 mixture of dimethylformamide (DMF) and dimethylsulfoxide (DMS) followed by the addition of N,N,N′,N′-Tetramethyl-O—(N-succinimidyl)uronium tetrafluoroborate (0.6 mg) and trimethylamine (10 μL) DMF. The mixture was stirred for 1 hour, after which 1 mg Alexa Fluor 647 Cadaverine, Disodium Salt (ThermoFisher Scientific) was added. After 2 hours, the solvents were evaporated under high vacuum (35° C.) and residue partially dissolved in 10% methanol and transferred onto a C18 cartridge (Waters Corporation, Milford, MA). Increasing percentages of methanol were used for the elution. […] An enzymatic inhibition assay was designed using casein substrate.^82 Bovine alpha casein (Sigma-Aldrich, St. Louis, MO) was labeled with Alexa Fluor 647 Carboxylic Acid, Succinimidyl Ester (ThermoFisher Scientific, Waltham, MA) as described.^82 Briefly, the two were combined at 2.5 ug/mg label to protein ratio in 0.1M sodium bicarbonate for 15 minutes and labeled casein was separated from unbound label in a Sephadex G-25 (Sigma-Aldrich) column comprised of 90×5 mm packed beads in a glass Pasteur pipette, eluted with dPBS pH7.4 (ThermoFisher Scientific). The fast-moving band (casein-bound fluorophore) was collected in ˜0.4 ml volume. Concentration of resultant probe (casein-Alexa647 in PBS-azide) was estimated via spectrophotometry using Beer's law (Implen Nanophotometer, Implen, Inc. Westlake Village, CA).
(§1) Assays were optimized using ranges of 0.3-1000 μM unlabeled pepstatin, 100-500 nM pepstatin-Alexa647 or casein-Alexa647 probe, 0.003-3 U/μl porcine pepsin (Worthington Biochemical Corporation, Lakewood, NJ), and 5-37.5% DMSO (HIV protease inhibitor diluent) in 0.1 M HCl, pH 1 with 0.01% v/v Tween-20 in 20 μl volumes in 384-well black optical plates (Nunc, Roskilde, DK) and read on a BioTek Cytation 5 (BioTek Instruments, Winooski, VT) with far red FP filter cube (excitation/emission 620/680 nm). Unlabeled pepstatin dose-response curves were used to ensure that the assays were responsive to pepsin inhibition. […] Assays were performed twice with triplicate reactions read for five minutes and mean mP plotted against probe concentration (binding assay) or read at <2 minutes intervals over 30 minutes with mean mP of plotted over time (activity assay). Half maximal inhibitory concentration (IC50) of inhibitors were calculated from kinetic traces analyzed using an online tool (https://icekat.herokuapp.com/icekat)^83. mP was normalized to blank (absent inhibitor) to derive percent bound or activity.

[3] = target: T2, porcine pepsin A (Sus scrofa, UniProt P00791); experiment: competitive binding assay, fluorescence polarization with pepstatin-Alexa647; details: 100 nM probe, 0.03 U/ul porcine pepsin A, 37.5% DMSO, 0.1 M HCl pH 1
T2 construct: purchased Worthington Biochemical Corporation
Procedure: To examine whether HIV protease inhibitors bound and inhibited pepsin, we developed assays based on fluorescence polarization which measures size-dependent molecular rotation thereby permitting detection of degradation, association and dissociation events^80. A competitive binding assay was designed employing pepstatin, an inhibitor of sub-nanomolar affinity^81. Pepstatin-Alexa647 was synthesized by dissolving 1 mg pepstatin A (Sigma-Aldrich) in a 50:50 mixture of dimethylformamide (DMF) and dimethylsulfoxide (DMS) followed by the addition of N,N,N′,N′-Tetramethyl-O—(N-succinimidyl)uronium tetrafluoroborate (0.6 mg) and trimethylamine (10 μL) DMF. The mixture was stirred for 1 hour, after which 1 mg Alexa Fluor 647 Cadaverine, Disodium Salt (ThermoFisher Scientific) was added. After 2 hours, the solvents were evaporated under high vacuum (35° C.) and residue partially dissolved in 10% methanol and transferred onto a C18 cartridge (Waters Corporation, Milford, MA). Increasing percentages of methanol were used for the elution. Pepstatin-Alexa647 eluted at 45% methanol. An enzymatic inhibition assay was designed using casein substrate.^82 Bovine alpha casein (Sigma-Aldrich, St. Louis, MO) was labeled with Alexa Fluor 647 Carboxylic Acid, Succinimidyl Ester (ThermoFisher Scientific, Waltham, MA) as described.^82 Briefly, the two were combined at 2.5 ug/mg label to protein ratio in 0.1M sodium bicarbonate for 15 minutes and labeled casein was separated from unbound label in a Sephadex G-25 (Sigma-Aldrich) column comprised of 90×5 mm packed beads in a glass Pasteur pipette, eluted with dPBS pH7.4 (ThermoFisher Scientific). The fast-moving band (casein-bound fluorophore) was collected in ˜0.4 ml volume. […]
as §1, with “nm).” for “nm). Unlabeled pepstatin dose-response curves were used to ensure that the assays were responsive to pepsin inhibition.”

[4] = system: pepsin; details: cited from earlier work
[5] = system: patients with HEMII-pH testing-confirmed alkaline LPR; details: thrice daily post meal with anti-reflux diet; n=48; cited from earlier work
[6] = system: pepsin; details: cited from earlier work; remark: listed apart in the source
[7] = cited from earlier work

T1 sequence (P00791 60-385): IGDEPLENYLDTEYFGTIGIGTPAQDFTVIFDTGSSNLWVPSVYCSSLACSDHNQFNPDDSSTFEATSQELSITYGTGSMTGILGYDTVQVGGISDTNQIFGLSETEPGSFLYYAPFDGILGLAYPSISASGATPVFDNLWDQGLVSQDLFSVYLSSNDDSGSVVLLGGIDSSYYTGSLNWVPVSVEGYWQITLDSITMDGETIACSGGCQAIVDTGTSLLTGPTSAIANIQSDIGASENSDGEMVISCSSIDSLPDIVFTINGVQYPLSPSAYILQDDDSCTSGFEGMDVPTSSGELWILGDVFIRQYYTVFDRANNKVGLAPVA
T2 sequence (P00791 60-385): as above

inhibited pepsin (peptic activity) [2]	bound pepsin (competitive binding) [3]	Compound	side effects [1]	effect on pepsin-mediated damage and inflammation [4]	also measured
low micromolar	low micromolar	CC(C)CN(C[C@@H](O)[C@H](Cc1ccccc1)NC(=O)O[C@H]1CCOC1)S(=O)(=O)c1ccc(N)cc1 [amprenavir, [(3S)-oxolan-3-yl] N-[(2S,3R)-4-[(4-aminophenyl)sulfonyl-(2-methylpropyl)amino]-3-hydroxy-1-phenylbutan-2-yl]carbamate]	minimal side effects (diarrhea, nausea and vomiting)		IC50 for pepsin ([2]; in vitro binding and inhibition assays, IC50 from kinetic traces): low micromolar range
		CC(C)c1cc2c(cc1S(=O)(=O)O)[C@@]1(C)CCC[C@@](C)(C(=O)O)[C@@H]1CC2 [ecabet sodium]		abrogate this damage and inflammation	
		O.O=S(=O)([O-])[O-].O=S(=O)([O-])[O-].[Al+3].[Al+3].[Al+3].[Al+3].[Al+3].[Mg+2].[Mg+2].[Mg+2].[Mg+2].[Mg+2].[Mg+2].[Mg+2].[Mg+2].[Mg+2].[Mg+2].[OH-].[OH-].[OH-].[OH-].[OH-].[OH-].[OH-].[OH-].[OH-].[OH-].[OH-].[OH-].[OH-].[OH-].[OH-].[OH-].[OH-].[OH-].[OH-].[OH-].[OH-].[OH-].[OH-].[OH-].[OH-].[OH-].[OH-].[OH-].[OH-].[OH-].[OH-] [magaldrate]			voice quality (GRBAS dysphonia and roughness, jitter, shimmer, noise to harmonic ratio) [5]: improved voice quality
		CC(C)CC(=O)N[C@H](C(=O)N[C@H](C(=O)N[C@@H](CC(C)C)[C@@H](O)CC(=O)N[C@@H](C)C(=O)N[C@@H](CC(C)C)[C@@H](O)CC(=O)O)C(C)C)C(C)C [pepstatin] (Isovaleryl-VV[Sta]A[Sta]-OH)		abrogate this damage and inflammation	affinity / potency as pepsin inhibitor [6]: potent pepsin inhibitor; also recorded: sub-nanomolar; water solubility [7]: poor water-solubility; also recorded: poor water-soluble characteristics
low micromolar	low micromolar	CC(C)c1nc(CN(C)C(=O)N[C@H](C(=O)N[C@@H](Cc2ccccc2)C[C@H](O)[C@H](Cc2ccccc2)NC(=O)OCc2cncs2)C(C)C)cs1 [ritonavir, 1,3-thiazol-5-ylmethyl N-[(2S,3S,5S)-3-hydroxy-5-[[(2S)-3-methyl-2-[[methyl-[(2-propan-2-yl-1,3-thiazol-4-yl)methyl]carbamoyl]amino]butanoyl]amino]-1,6-diphenylhexan-2-yl]carbamate]	minimal side effects (diarrhea, nausea and vomiting)		
		anthocyanin		abrogate this damage and inflammation	

— US20240041764A1, “Sustained-Release Oral Fosamprenavir Formulation for Treatment of Reflux” (The Medical College of Wisconsin, Inc., priority 2022, published 2024)
